Source: patent US12629374B2, “Antimalarial agents” (Merck Sharp & Dohme LLC, priority 2020, dated 2026)
Where a name gives a salt, the structure may show the parent alone. Read-outs that look alike come from different tables or passages of the source.

System: ring stage parasites
Experiment: Parasite growth potency assay, 72 hours, LDH readout
Assay type: cell-based
Details: parasite growth measured by LDH assay after 72 hours at 37° C., 0.7% rings, 2% haematocrit, read-out: EC50
Method in brief: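 Parasite growth was quantified by LDH assay after a −80 °C freeze-thaw. Before that, compound was incubated for 72 h at 37 °C under humidified gas with ring-stage cultures adjusted to 0.7% parasitemia and 2% haematocrit in serum- and albumax-supplemented RPMI-Hepes.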

Structure (SMILES) | EC50 (72 h) | also measured
CCC1(CC)CC(=O)N([C@H](C)c2cccc(C(=O)N[C@@H]3c4ccccc4OC(C)(C)[C@H]3O)c2)C(=N)N1 [Example 193, [4,4-diethyl-1-[(1R)-1-[3-[[(3S,4R)-3-hydroxy-2,2-dimethyl-chroman-4-yl]carbamoyl]phenyl]ethyl]-6-oxo-hexahydropyrimidin-2-ylidene]ammonium; 2,2,2-trifluoroacetate] | 0.6 nM | 
CC[C@]1(c2ccccc2)CC(=O)N(Cc2cc(F)cc(C(=O)N[C@H]3CCOc4ccccc43)c2)C(=N)N1 [Example 52, [(4R)-1-[[3-[[(4S)-chroman-4-yl]carbamoyl]-5-fluoro-phenyl]methyl]-4-ethyl-6-oxo-4-phenyl-hexahydropyrimidin-2-ylidene]ammonium; 2,2,2-trifluoroacetate] | 20.1 nM | 
CCC1(CC)CC(=O)N([C@H](CCOC)c2cc(F)cc(C(=O)N[C@H]3c4ccccc4CC3(C)O)c2)C(=N)N1 (single isomer, unassigned) [Example 144C, 3-[1-(4,4-diethyl-2-imino-6-oxo-hexahydropyrimidin-1-yl)-3-methoxy-propyl]-5-fluoro-N-(2-hydroxy-2-methyl-indan-1-yl)benzamide] |  | EC50: 99.5 nM
CCC1(CC)CC(=O)N([C@H](CCOC)c2cccc(C(=O)N[C@@H]3c4ccccc4OC3(C)CO)c2)C(=N)N1 (single isomer, unassigned) [Example 180A, trifluoroacetate] |  | EC50 (trifluoroacetate): 1.5 nM
CCC1(CC)CC(=O)N([C@@H](c2cccc(C(=O)N[C@H]3CCOc4ccccc43)c2)C23CC(C2)C3)C(=N)N1 [Example 32, [1-[1-bicyclo[1.1.1]pentanyl-[3-[[(4S)-chroman-4-yl]carbamoyl]phenyl]methyl]-4,4-diethyl-6-oxo-hexahydropyrimidin-2-ylidene]ammonium; 2,2,2-trifluoroacetate] | 2 nM | 
CCC1(CC)CC(=O)N([C@H](c2cccc(C(=O)N[C@@H]3c4ccccc4C[C@H]3O)c2)c2cccc(S(C)(=O)=O)c2)C(=N)N1 [Example 124B, [4,4-diethyl-1-[[3-[[(1R,2R)-2-hydroxyindan-1-yl]carbamoyl]phenyl]-(3-methylsulfonylphenyl)methyl]-6-oxo-hexahydropyrimidin-2-ylidene]ammonium; 2,2,2-trifluoroacetate] | 53 nM | 
CCC1(CC)CC(=O)N([C@H](CCOC)c2cccc(C(=O)N[C@H]3C[C@H](C(F)(F)F)Oc4ccccc43)c2)C(=N)N1 [Example 132B, [4,4-diethyl-1-[3-methoxy-1-[3-[[(2R,4S)-2-(trifluoromethyl)chroman-4-yl]carbamoyl]phenyl]propyl]-6-oxo-hexahydropyrimidin-2-ylidene]ammonium; 2,2,2-trifluoroacetate] | 0.9 nM | 
CC(C)[C@]1(C)CC(=O)N([C@H](c2cccnc2)c2cccc(C(=O)N[C@H]3CC(C)(C)Oc4ccccc43)c2)C(=N)N1 [Example 101A, [(4S)-1-[[3-[[(4S)-2,2-dimethylchroman-4-yl]carbamoyl]phenyl]-pyridin-1-ium-3-yl-methyl]-4-isopropyl-4-methyl-6-oxo-hexahydropyrimidin-2-ylidene]ammonium; 2,2,2-trifluoroacetate] | 0.3 nM | 
CC[C@]1(C)CC(=O)N([C@H](CCOC)c2cccc(C(=O)NC3c4cc(F)ccc4OC(C)(C)C3(C)O)c2)C(=N)N1 (single isomer, unassigned) [Example 237A] |  | EC50: 54.6 nM
CCC1(CC)CC(=O)N([C@H](CCS(C)(=O)=O)c2cccc(C(=O)N[C@@H]3c4ccccc4C[C@H]3O)c2)C(=N)N1 [Example 153, [4,4-diethyl-1-[1-[3-[[(1R,2R)-2-hydroxyindan-1-yl]carbamoyl]phenyl]-3-methylsulfonyl-propyl]-6-oxo-hexahydropyrimidin-2-ylidene]ammonium; 2,2,2-trifluoroacetate] | 77.8 nM | 
CCC1(CC)CC(=O)N([C@H](CCOC)c2cc(F)cc(C(=O)N[C@@H]3c4ccccc4CC3(C)O)c2)C(=N)N1 (stereo in doubt) [Example 144D, 3-[1-(4,4-diethyl-2-imino-6-oxo-hexahydropyrimidin-1-yl)-3-methoxy-propyl]-5-fluoro-N-(2-hydroxy-2-methyl-indan-1-yl)benzamide] |  | EC50: 0.9 nM
